PubChem BioAssay (NCI)
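Method: 48-hour compound exposure of cells in 96-well plates, five concentrations, linear interpolation of endpoints. TGI marks complete inhibition of growth.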

Assays:
Assay in all cases: DTP human tumour cell line panel, 48 h
NCI-H23 lung = test system: NCI-H23 lung
786-0 renal = test system: 786-0 renal
OVCAR-5 ovarian = test system: OVCAR-5 ovarian
HCT-15 colon = test system: HCT-15 colon
MOLT-4 leukemia = test system: MOLT-4 leukemia
U251 CNS = test system: U251 CNS
SNB-75 CNS = test system: SNB-75 CNS
NCI-H226 lung = test system: NCI-H226 lung
SK-MEL-2 melanoma = test system: SK-MEL-2 melanoma
LXFL 529 NSCLC = test system: LXFL 529 NSCLC
COLO 205 colon = test system: COLO 205 colon
DMS 273 small cell lung = test system: DMS 273 small cell lung
ACHN renal = test system: ACHN renal
CCRF-CEM leukemia = test system: CCRF-CEM leukemia
SK-MEL-5 melanoma = test system: SK-MEL-5 melanoma
SF-295 CNS = test system: SF-295 CNS
HL-60(TB) leukemia = test system: HL-60(TB) leukemia
SF-268 CNS = test system: SF-268 CNS
A549 NSCLC = test system: A549 NSCLC
SR leukemia = test system: SR leukemia
DLD-1 colon = test system: DLD-1 colon
IGROV1 ovarian = test system: IGROV1 ovarian
OVCAR-4 ovarian = test system: OVCAR-4 ovarian
NCI-H522 lung = test system: NCI-H522 lung
UACC-62 melanoma = test system: UACC-62 melanoma
KM20L2 colon = test system: KM20L2 colon
SF-539 CNS = test system: SF-539 CNS
HCT-116 colon = test system: HCT-116 colon
HT29 colon = test system: HT29 colon
SK-MEL-28 melanoma = test system: SK-MEL-28 melanoma
MALME-3M melanoma = test system: MALME-3M melanoma
SW-620 colon = test system: SW-620 colon
K-562 leukemia = test system: K-562 leukemia
M19-MEL melanoma = test system: M19-MEL melanoma
KM12 colon = test system: KM12 colon
OVCAR-8 ovarian = test system: OVCAR-8 ovarian
CAKI-1 renal = test system: CAKI-1 renal
HCC-2998 colon = test system: HCC-2998 colon
DMS 114 small cell lung = test system: DMS 114 small cell lung
HOP-62 NSCLC = test system: HOP-62 NSCLC
TK-10 renal = test system: TK-10 renal
UO-31 renal = test system: UO-31 renal
M14 melanoma = test system: M14 melanoma
HOP-92 NSCLC = test system: HOP-92 NSCLC
NCI-H460 lung = test system: NCI-H460 lung
UACC-257 melanoma = test system: UACC-257 melanoma
OVCAR-3 ovarian = test system: OVCAR-3 ovarian
RPMI-8226 leukemia = test system: RPMI-8226 leukemia
SNB-19 CNS = test system: SNB-19 CNS
SK-OV-3 ovarian = test system: SK-OV-3 ovarian
RXF 393 renal = test system: RXF 393 renal
SN12C renal = test system: SN12C renal
EKVX NSCLC = test system: EKVX NSCLC
SNB-78 CNS = test system: SNB-78 CNS
A498 renal = test system: A498 renal
LOX IMVI melanoma = test system: LOX IMVI melanoma

Measured: TGI

Cc1ccc(-c2cc(=S)n(-c3ccccc3)c3nc(=S)n(-c4ccccc4)c(N)c23)cc1
not listed: SK-OV-3 ovarian | RXF 393 renal | SN12C renal | EKVX NSCLC | SNB-78 CNS | A498 renal | LOX IMVI melanoma
> 100 µM: all other assays above

CCCC12Cc3c(OC)ccc(OC)c3CC(Cc3c(OC)ccc(OC)c31)C2=O (stereo not given)
not listed: COLO 205 colon | IGROV1 ovarian | UACC-62 melanoma | KM20L2 colon | HOP-92 NSCLC | RPMI-8226 leukemia | LOX IMVI melanoma
> 100 µM: all other assays above

CNc1nc(N)cc(=O)[nH]1
not listed: SR leukemia | SF-539 CNS | HOP-92 NSCLC | RXF 393 renal
> 100 µM: all other assays above
